Measurements: ChEMBL document CHEMBL5131516, “The Ascension of Targeted Covalent Inhibitors” (J Med Chem, 2022)

Experiments:
[1] = Inhibition of wild-type EGFR phosphorylation in human NCI-H1819 cells; type: cell-based
[2] = biological target: T1, Tyrosine-protein kinase Tec (Homo sapiens, UniProt P42680)
T1 sequence (P42680 whole entry): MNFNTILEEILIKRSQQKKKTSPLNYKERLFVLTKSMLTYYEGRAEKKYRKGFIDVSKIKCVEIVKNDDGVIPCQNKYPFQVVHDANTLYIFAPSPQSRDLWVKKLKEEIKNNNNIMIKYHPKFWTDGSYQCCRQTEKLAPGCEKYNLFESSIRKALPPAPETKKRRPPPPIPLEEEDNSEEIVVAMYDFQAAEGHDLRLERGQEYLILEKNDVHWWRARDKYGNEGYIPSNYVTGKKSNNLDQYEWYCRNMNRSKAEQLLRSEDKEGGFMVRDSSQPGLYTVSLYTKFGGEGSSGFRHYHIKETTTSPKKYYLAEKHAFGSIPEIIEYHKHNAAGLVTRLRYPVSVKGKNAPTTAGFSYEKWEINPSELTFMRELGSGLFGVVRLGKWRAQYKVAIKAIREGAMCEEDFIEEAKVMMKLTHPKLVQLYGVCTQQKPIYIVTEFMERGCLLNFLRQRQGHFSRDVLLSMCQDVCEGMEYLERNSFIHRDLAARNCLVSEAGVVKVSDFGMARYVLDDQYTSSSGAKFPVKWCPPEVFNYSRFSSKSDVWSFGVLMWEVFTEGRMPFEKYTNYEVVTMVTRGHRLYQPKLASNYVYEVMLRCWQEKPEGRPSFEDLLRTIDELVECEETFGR
Description: Inhibition of TEC (unknown origin)

EC50 [1] | IC50 [2] | SMILES
29 nM |  | COc1cc2ncnc(Nc3ccc(F)c(Cl)c3)c2cc1NC(=O)/C=C/CN1CCCCC1 [DACOMITINIB ANHYDROUS]
 | 44 nM | C=CC(=O)N1CCC([C@@H]2CCNc3c(C(N)=O)c(-c4ccc(Oc5ccccc5)cc4)nn32)CC1 [ZANUBRUTINIB]
